The values that follow come from publication PMC9686213, “Peptide Carbocycles: From −SS– to −CC– via a Late-Stage “Snip-and-Stitch”” (ACS Central Science, 2022).

Like-named read-outs stand apart in the source and are kept apart here.

The conditions of data set [1]: ethylene glycol/heptane, cited from earlier work.
Data set [2] in a line: Hydrolytic stability at pH 8.5, 50 °C, LC-MS analysis. Type of data set: physicochemical. The note with it: 16 h. The source says: (§1) We next examined the effect of our linkers on the biopharmaceutical properties of setmelanotide. The capacity of setmelanotide (SMT) to regulate appetite depends on its ability to penetrate the blood–brain barrier and to activate melanocortin-4 (MC4) receptors in the brain.[79],[80] […] To assess cell permeability, we measured the partition coefficient Peh of our carbocyclic peptides in a mixture of ethylene glycol and heptane.[81]−[84] […] Thus, log Peh values are a good approximation of in vivo permeabilities. […] Finally, we determined the stability of our carbocyclic peptides to aqueous hydrolysis and to reductive cleavage by glutathione (GSH), an approximate measure of their plasma stability.[85] GSH in the cytoplasm can reduce disulfide bonds to dicysteine peptides and can also cleave disulfide bonds through a disulfide exchange reaction.[18]−[21] […] All measurements were compared to setmelanotide (SMT).
(§2) (1 picture or pasted object on this page, not shown here)

Data set [3] is described as follows: Stability to reductive cleavage / disulfide exchange by glutathione (GSH). Type of data set: in vitro ADME. The note with it: pH 7.4, 37 °C. The source says:
We next examined the effect of our linkers on the biopharmaceutical properties of setmelanotide. The capacity of setmelanotide (SMT) to regulate appetite depends on its ability to penetrate the blood–brain barrier and to activate melanocortin-4 (MC4) receptors in the brain.[79],[80] Replacing the −SS– bond of SMT with more lipophilic −CC– linkages could improve the CNS permeability of SMT and could also enhance its proteolytic stability. […] For aqueous solubility, we measured solvation in deionized water (pH 6 at 25 °C). […] To assess cell permeability, we measured the partition coefficient Peh of our carbocyclic peptides in a mixture of ethylene glycol and heptane.[81]−[84] […] Thus, log Peh values are a good approximation of in vivo permeabilities. […]. Thus, many of our carbocyclic analogs should have improved (up to 2.6-fold) blood–brain penetrance in vivo. Finally, we determined the stability of our carbocyclic peptides to aqueous hydrolysis and to reductive cleavage by glutathione (GSH), an approximate measure of their plasma stability.[85] GSH in the cytoplasm can reduce disulfide bonds to dicysteine peptides and can also cleave disulfide bonds through a disulfide exchange reaction.[18]−[21] […] The products were analyzed by LC-MS. […]

A short description of data set [4]: Partition coefficient Peh in ethylene glycol/heptane (permeability, log Peh). It is filed as physicochemical. The note with it: UPLC peak area at 280 nm.
Text: as §1, §2

The mark [5] stands for this setting: common small molecule CNS drugs.

For the molecule `Cc1cc(=O)n(-c2ccccc2)n1C` [antipyrine], the “log Peh” value in data set [1] (setting [5]) is recorded as −2.28. Take `NC(=O)c1ccccc1` [benzamide]: in data set [1] (reference solutes quoted 'for reference'), the “log Peh” value is given as −3.69. Turning to `Clc1cccc(Cl)c1N=C1NCCN1` [clonidine], the “log Peh” value in data set [1] (setting [5]) was −1.80. As to `c1cc(CN2CCCCC2)cc(OCCCNc2nc3ccccc3s2)c1` [zolantidine], the “log Peh” value in data set [1] (setting [5]) is −1.47. As for setmelanotide [SMT], the “hydrolysis outcome (in words)” value in data set [2] is on record as “loss of a single sulfur atom”. For the same molecule, the “mixed disulfide formed (disulfide exchange)” value is listed as 2% in data set [3] (1 equiv. GSH, after 24 h) and 17% in data set [3] (10 equiv. GSH). Further, the “log Peh” value in data set [4] is −1.16.
